Patent US20260166159A1, “KRAS G12D DEGRADATION AGENT, AND PREPARATION METHOD AND USE THEREFOR” (LEADINGTAC PHARMACEUTICAL (SHAOXING) CO., LTD., priority 2022, published 2026)

Columns and labels:
Type in all cases: cell-based
[1] = system: KRAS G12D mutant human lung cancer cell A427; assay: 3D cell proliferation inhibition assay, A427; settings: A-427, 168 h, A427, 7 days, CTG
Source text: (§1) The inhibitory effects of the compounds on 3D cell proliferation were investigated on KRAS G12D mutant human lung cancer cell A427, KRAS G12D mutant human gastric cancer cell AGS, KRAS G12D mutant human metastatic pancreatic cancer cell AsPc-1, KRAS G12D mutant human pancreatic cancer cell Panc 04.03, KRAS G12D mutant human pancreatic cancer cell HPAC, KRAS G12V mutant human lung squamous cell carcinoma cell SW900, and KRAS WT human gastric cancer cell MKN1. The specific procedures were as follows:
(§2) 10 μL of each compound solution diluted in a gradient was added to corresponding wells of a 96-well low-adsorption microplate (PerkinElmer), so that the final concentrations of the test compounds in the reaction system were in a range of 10000-0.026 nM. The final concentration of DMSO was 0.2%. Then 90 µL of cells were correspondingly seeded into each well to achieve a cell density of 5×10^2 cells/well (the cell density of SW900 was 5×10^1 cells/well, and the cell density of MKN1 was 1×10^3 cells/well). In addition to test wells for the test compounds, both a DMSO control well and a medium control well were set, with the DMSO control well containing DMSO and cells and the medium well containing only a medium. After the sample loading, the 96-well low-adsorption microplate was incubated in an incubator at 37° C. with 5% carbon dioxide for 7 days. After 7 days, the microplate was taken out, and 100 μL of CTG reagent (Promega) was added to each well. The plate was incubated at room temperature for 60 min and read on a microplate reader EnVision by the chemiluminescence program. The inhibition rates of the compounds at each concentration were calculated using the formula for the percentage inhibition of cell proliferation: inhibition rate %=(mean value of DMSO control group−single concentration reading value of compound)/(mean value of DMSO control group−mean value of medium control group)×100. Then non-linear curve fittings for logarithmic concentration-inhibition rate were performed by GraphPad Prism 8, and the IC50 values of the compounds were obtained (Table 5).

KRAS-G12D [2] = target: T1, KRAS-G12D (Homo sapiens, UniProt P01116, G12D); assay: KRAS-G12D degradation assay (Western Blot), A-427 cells; settings: A427 cells, 24 h; for Dmax: A-427
T1 construct: endogenous in cells; host or cells: A-427 (ATCC), AGS, AsPc-1, Panc 04.03
Procedure: (§3) The degradation effects of the compounds on KRAS-G12D were investigated on KRAS G12D mutant human lung cancer cell A-427 (ATCC), KRAS G12D mutant human gastric cancer cell AGS, KRAS G12D mutant human metastatic pancreatic cancer cell AsPc-1, and KRAS G12D mutant human pancreatic adenocarcinoma cell Panc 04.03. The specific procedures were as follows: 0.95 mL of cells were seeded into each well of a 24-well cell culture plate to achieve a cell density of 5×10^5 cells/well; and the cell plate was incubated in an incubator at 37° C. with 5% CO2 overnight. Then 50 μL of the compound solution after dilution was added to each of the wells with the corresponding cells, so that the final concentration of the compound was in a range of 0.03-3000 nM. The final concentration of DMSO was 0.25%. After the compounds were added, the cell plate was incubated in the incubator at 37° C. with 5% CO2 for 24 h. The culture medium in the 24-well cell culture plate was removed, and the plate was washed twice with 1×PBS (KeyGEN). 120 μL of RIPA (strong) lysis buffer (Beyotime) supplemented with 1 mM phenylmethylsulfonyl fluoride, a protease inhibitor mixture (Beyotime), and a protease phosphatase inhibitor mixture (Beyotime) was added to lyse adherent A-427 cells at the bottom of the cell culture plate. After the plate was left to stand on ice for 30 min, the protein lysate in each well was transferred to a 1.5 mL centrifuge tube and centrifuged at 15000 g for 20 min at 4° C. The cell lysate supernatants after centrifugation were cryopreserved in a refrigerator at −80° C. for later use.
(§4) After the samples of the cell lysate supernatants that had been prepared were thawed from the refrigerator at −80° C., the total protein concentrations of the cell lysates were determined using a BCA protein quantification kit (Tiangen). The total protein concentrations of the samples were then adjusted to 0.5 μg/μL with PBS and 5×SDS-PAGE protein loading buffer (Beyotime), and the samples were incubated in a water bath at 100° C. for 15 min. The samples were then incubated in an ice bath for 5 min and centrifuged at 14000 g for 1 min at 4° C., and the supernatants were mixed well as loading samples for the Western Blot assay. The samples were loaded into wells of a 10% precast gel (KeyGEN) with a loading volume of 10 μL (total protein: 5 μg), a sufficient Tris-MOPS-SDS running buffer (Adamas) was added, and then electrophoresis was performed at a constant voltage of 120 V for 55 min. After the electrophoresis, the proteins on the gel were transferred to PVDF membranes at a constant current of 250 mA for 55 min. After the membrane transfer, the PVDF membranes were incubated in 1× Quick Block blocking buffer (Beyotime) at room temperature for 30 min. After the blocking, the PVDF membranes were separately incubated at 4° C. overnight with the KRAS antibody (Abcam) diluted in a ratio of 1:1000 and the […] antibody (Abcam) diluted in a ratio of 1:2000 in 5% BSA as the diluent, and then washed with 1×TBST buffer (2.4 g of Tris, 8.8 g of NaCl, 1.5 mL of Tween 20, with pH adjusted to 7.4, with the volume brought to 1 L) 3 times for 10 min/time. The membranes were incubated with a secondary antibody (Abcam) diluted in 5% BSA at room temperature for 2 h, and then washed with 1×TBST buffer 3 times for 10 min/time. Finally, the membranes were incubated with Clarity Western ECL Substrate (BIO-RAD) for 5 min for luminescence and color development, and a ChemiScope 6200 Touch chemiluminescence imaging system (Clinx) was used for color development and protein mapping. Gray value analysis of the protein maps was performed using the chemiluminescence analysis software (Clinx). The gray correction value for each sample was calculated using the formula: gray correction value=(gray value of target protein/gray value of corresponding internal reference)×10^3. Then degradation rates were calculated by comparison with the gray correction value of the control group. […]

[3] = system: KRAS G12D mutant human gastric cancer cell AGS; assay: 3D cell proliferation inhibition assay, AGS; settings: 168 h, 7 days, CTG
Source text: as §1, §2

KRAS-G12D [4] = target: T1, KRAS-G12D; assay: KRAS-G12D degradation assay (Western Blot), AsPc-1 cells; settings: for DC50: 24 h; for Dmax: ASPC1, 24 h
Procedure: as §3, §4

T1 sequence (P01116 1-188 isoform P01116-2 G12D): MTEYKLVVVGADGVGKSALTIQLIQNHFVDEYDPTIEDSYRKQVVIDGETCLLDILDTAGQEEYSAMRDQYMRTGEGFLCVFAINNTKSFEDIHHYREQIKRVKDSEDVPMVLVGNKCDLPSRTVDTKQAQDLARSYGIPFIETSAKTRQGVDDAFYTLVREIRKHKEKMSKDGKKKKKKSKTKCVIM

Work on `C#Cc1cccc2cc(O)cc(-c3ccc4c(N5CC6CCC(C5)N6)nc(OCC5(CN6CCN(CC7CCC8(CC7)CCN(C(=O)c7ccc(OC)c(N9CCC(=O)NC9=O)c7)CC8)CC6)CC5)nc4c3F)c12` [Example 76, 1-(5-(9-((4-((1-(((4-(3,8-diazabicyclo[3.2.1]octan-3-yl)-7-(8-ethynyl-3-hydroxynaphthalen-1-yl)-8-fluoroquinazolin-2-yl)oxy)methyl)cyclopropyl)methyl)piperazin-1-yl)methyl)-3-azaspiro[5.5]undecane-3-carbonyl)-2-methoxyphenyl)dihydropyrimidine-2,4(1H,3H)-dione] yielded an IC50 ([1]; numeric values) of 74.8 nM, a DC50 (KRAS-G12D [2]; numeric values) of 1.74 nM and a Dmax (KRAS-G12D [2]; numeric values) of 89.3%. The IC50 ([3]; numeric values) was 9.53 nM.
In the case of `C#Cc1c(F)ccc2cc(O)cc(-c3ncc4c(N5CC6CCC(C5)N6)nc(NCC5(CN6CCN(CC7CCC8(CC7)CCN(C(=O)c7ccc(C)c(N9CCC(=O)NC9=O)c7)CC8)CC6)CC5)nc4c3F)c12` [Example 44, 1-(5-(9-((4-((1-(((4-(3,8-diazabicyclo[3.2.1]octan-3-yl)-7-(8-ethynyl-7-fluoro-3-hydroxynaphthalen-1-yl)-8-fluoropyrido[4,3-d]pyrimidin-2-yl)amino)methyl)cyclopropyl)methyl)piperazin-1-yl)methyl)-3-azaspiro[5.5]undecane-3-carbonyl)-2-methylphenyl)dihydropyrimidine-2,4(1H,3H)-dione], the IC50 ([1]; class symbols) is reported as 100 to 500 nM, the DC50 (KRAS-G12D [2]; class symbols) is reported as ≤ 50 nM and the Dmax (KRAS-G12D [2]; class symbols) is reported as 80 to 100%. For the same compound, the IC50 ([3]; class symbols) was ≤ 50 nM.
`C#Cc1c(F)ccc2cc(O)cc(-c3ncc4c(N5CC6CCC(C5)N6)nc(OCC5(CN6CCC(CCOCC7(OC)CCN(C(=O)c8ccc(Cl)c(N9CCC(=O)NC9=O)c8)CC7)CC6)CC5)nc4c3F)c12` [Example 67, 1-(5-(4-((2-(1-((1-(((4-(3,8-diazabicyclo[3.2.1]octan-3-yl)-7-(8-ethynyl-7-fluoro-3-hydroxynaphthalen-1-yl)-8-fluoropyrido[4,3-d]pyrimidin-2-yl)oxy)methyl)cyclopropyl)methyl)piperidin-4-yl)ethoxy)methyl)-4-methoxypiperidine-1-carbonyl)-2-chlorophenyl)dihydropyrimidine-2,4(1H,3H)-dione] showed an IC50 ([1]; numeric values) of 36.5 nM and an IC50 ([3]; numeric values) of 33.6 nM.
In the case of `C#Cc1c(F)ccc2cc(O)cc(-c3ncc4c(N5CC6CCC(C5)N6)nc(SCC5(CN6CCN(CC7CCC8(CC7)CCN(C(=O)c7ccc(OC)c(N9CCC(=O)NC9=O)c7)CC8)CC6)CC5)nc4c3F)c12` [Example 54, 1-(5-(9-((4-((1-(((4-(3,8-diazabicyclo[3.2.1]octan-3-yl)-7-(8-ethynyl-7-fluoro-3-hydroxynaphthalen-1-yl)-8-fluoropyrido[4,3-d]pyrimidin-2-yl)thio)methyl)cyclopropyl)methyl)piperazin-1-yl)methyl)-3-azaspiro[5.5]undecane-3-carbonyl)-2-methoxyphenyl)dihydropyrimidine-2,4(1H,3H)-dione], the IC50 ([1]; class symbols) is reported as ≤ 50 nM and the IC50 ([3]; class symbols) is reported as ≤ 50 nM.
For `C#Cc1c(F)ccc2cc(O)cc(-c3ncc4c(N5CC6CCC(C5)N6)nc(OC[C@@H](CN5CCN(CC6CCC7(CC6)CCN(C(=O)c6ccc(C)c(N8CCC(=O)NC8=O)c6)CC7)CC5)OC)nc4c3F)c12` [Example 172, 1-(5-(9-((4-((R)-3-((4-(3,8-diazabicyclo[3.2.1]octan-3-yl)-7-(8-ethynyl-7-fluoro-3-hydroxynaphthalen-1-yl)-8-fluoropyrido[4,3-d]pyrimidin-2-yl)oxy)-2-methoxypropyl)piperazin-1-yl)methyl)-3-azaspiro[5.5]undecane-3-carbonyl)-2-methylphenyl)dihydropyrimidine-2,4(1H,3H)-dione], the DC50 (KRAS-G12D [4]) was 113 nM and the Dmax (KRAS-G12D [4]) was 55%.
`C#Cc1c(F)ccc2cc(O)cc(-c3ncc4c(N5CC6CCC(C5)N6)nc(OCCN5CCN(CC6CCC7(CC6)CCN(C(=O)c6ccc(Cl)c(N8CCC(=O)NC8=O)c6)CC7)CC5)nc4c3F)c12` [Example 60, 1-(5-(9-((4-(2-((4-(3,8-diazabicyclo[3.2.1]octan-3-yl)-7-(8-ethynyl-7-fluoro-3-hydroxynaphthalen-1-yl)-8-fluoropyrido[4,3-d]pyrimidin-2-yl)oxy)ethyl)piperazin-1-yl)methyl)-3-azaspiro[5.5]undecane-3-carbonyl)-2-chlorophenyl)dihydropyrimidine-2,4(1H,3H)-dione] was tested, and the IC50 ([1]; class symbols) was 100 to 500 nM and the IC50 ([3]; class symbols) was ≤ 50 nM.
`CCc1cccc2cc(O)cc(-c3ccc4c(N5CC6CCC(C5)N6)nc(OCC5(CN6CCN(CC7CCC8(CC7)CCN(C(=O)c7ccc(C)c(N9CCC(=O)NC9=O)c7)CC8)CC6)CC5)nc4c3F)c12` [Example 70, 1-(5-(9-((4-((1-(((4-(3,8-diazabicyclo[3.2.1]octan-3-yl)-7-(8-ethyl-3-hydroxynaphthalen-1-yl)-8-fluoroquinazolin-2-yl)oxy)methyl)cyclopropyl)methyl)piperazin-1-yl)methyl)-3-azaspiro[5.5]undecane-3-carbonyl)-2-methylphenyl)dihydropyrimidine-2,4(1H,3H)-dione] showed a DC50 (KRAS-G12D [2]; numeric values) of 14.6 nM, a Dmax (KRAS-G12D [2]; numeric values) of 87.3% and an IC50 ([3]; numeric values) of 15.5 nM.
`C#Cc1c(F)ccc2cc(O)cc(-c3ncc4c(N5CC6CCC(C5)N6)nc(OC[C@H](O)CN5CCN(CC6CCC7(CC6)CCN(C(=O)c6ccc(OC)c(N8CCC(=O)NC8=O)c6)CC7)CC5)nc4c3F)c12` [Example 191, 1-(5-(9-((4-((R)-3-((4-(3,8-diazabicyclo[3.2.1]octan-3-yl)-7-(8-ethynyl-7-fluoro-3-hydroxynaphthalen-1-yl)-8-fluoropyrido[4,3-d]pyrimidin-2-yl)oxy)-2-hydroxypropyl)piperazin-1-yl)methyl)-3-azaspiro[5.5]undecane-3-carbonyl)-2-methoxyphenyl)dihydropyrimidine-2,4(1H,3H)-dione] gave a DC50 (KRAS-G12D [4]) of 149 nM and a Dmax (KRAS-G12D [4]) of 81.9%.
